Tests used:
[1] = molecular target: T1, GPR40 (Homo sapiens, UniProt O14842); experiment: Agonist activity on CHO-K1/GPR40 cell (Fluo-4 calcium fluorescence); format: cell-based; conditions: CHO-K1 cell line expressing GPR40, calcium ion fluorescence
T1 construct: host or cells: CHO-K1 (Cell bank of the Chinese Academy of Sciences, GNHa 7), retrovirus infection
From the text: Agonist activity of compounds of the present disclosure on CHO-K1/GPR40 cell.
The following method was used to determine the agonist activity of compounds of the present disclosure on GPR40. The experiment process is described as follows:
CHO-K1/GPR40 cell (CHO-K1 cell line expressing GPR40, which was constructed using retrovirus infection method, CHO-K1/GPR40 cell for short, wherein CHO-K1 cell was purchased from Cell bank of the Chinese Academy of Sciences, catalogue number GNHa 7; GPR40 cDNA was purchased from Guangzhou FulenGen Co., Ltd, catalogue number EX-UO270-MO2) was inoculated in a 96-well plate with an inoculation density of 25000 cells/well. The cell plate was incubated at 37° C. and 5% CO2 for 24 hours. The cell culture fluid was discarded during the experiment, the cells were washed with buffer solution (1×HBSS+20 mM HEPES pH 7.4) once, 100 μL of Fluo-4 calcium ion dye was quickly added into each well, incubated at 37° C. in the dark for 30 minutes, and then at room temperature for another 30 minutes. During the determination, the baseline value of each well was read at first, and then different concentrations of drug were added to the wells (50 μL/well), and the fluorescence values were then read. The fluorescence excitation wavelength was 494 nm and the emission wavelength was 516 nm. The increase of fluorescence intensity was proportional to calcium ion level in the cells. Cell response rate of each cell/(The maximum fluorescence value−The minimum fluorescence value)/The minimum fluorescence value. EC50 values of the compounds were calculated

[2] = system: ICR mice fed on a high fat diet; experiment: Oral glucose tolerance test (OGTT) in glucose load mice fed on a high fat diet; format: in vivo; conditions: blood glucose AUC, high fat diet ICR male mice
Method: ICR mice fed on a high fat diet were used as test animals. The effect of oral administration of a single dose of the compounds of the present disclosure on oral glucose tolerance test (OGTT) of glucose load mice was studied.
Compounds of Example 1, Example 2, Example 13, Example 16, Example 18, Example 19 and Example 26
Healthy ICR male mice were purchased from SINO-BRITSH SIPPR/BK LAB. ANIMAL LTD., CO, License number: SCXK (Shanghai) 2008-0016
The test compounds were added to aqueous 0.5% CMC-Na solution to prepare the corresponding concentration suspension using microwave.
After an overnight fast for 16 hours, male mice fed on a high fat diet were weighed, and the basic blood glucose was determined. The mice were randomly divided into a Blank group and the group of each test compound of the present disclosure according to the level of blood glucose.
The dosage of administration was 20 mg/kg or 40 mg/kg, and the Blank group was administered aqueous 0.5 CMC-Na solution.
20% Glucose solution was administered 15 minutes after intragastrical administration (each mouse was administered 0.4 mL)
The compounds were administered according to the aforesaid dosage to determine the blood glucose value (−15 minutes).
At 15 minutes after administration, 20% glucose solution was administrated at a dose of 2 g/kg and the blood glucose values at 0, 15, 30, 45, 60 and 120 minutes in each mouse were determined by Roche Accu-Chek blood glucose monitoring meter.
Using Excel statistical software: the average value was calculated with avg; SD value was calculated with STDEV; and P value of difference among groups was calculated with TTEST. • AUC calculation formula: AUC=(t15min+t0min)×0.25/2+(t30min+t15min)×0.25/2+(t45min+t30min)×0.25/2+(t60min+t45min)×0.25/2+(t120min+t60min)×1/2 • Wherein t0min, t15min, t30min, t45min, t60min, t120min were blood glucose values determined at different time points.

T1 sequence (O14842 whole entry): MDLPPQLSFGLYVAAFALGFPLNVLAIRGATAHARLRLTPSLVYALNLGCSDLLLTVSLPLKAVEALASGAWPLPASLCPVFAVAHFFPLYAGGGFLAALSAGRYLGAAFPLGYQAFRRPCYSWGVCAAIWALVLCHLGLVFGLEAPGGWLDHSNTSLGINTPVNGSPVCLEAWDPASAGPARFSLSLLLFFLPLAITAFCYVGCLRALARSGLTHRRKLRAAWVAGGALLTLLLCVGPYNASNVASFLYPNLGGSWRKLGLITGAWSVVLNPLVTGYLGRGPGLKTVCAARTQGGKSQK

| SMILES | EC50 [1] | AUC decrease rate % ([2]; single oral dose 40 mg/kg) | AUC decrease rate % ([2]; single oral dose 20 mg/kg) |
| --- | --- | --- | --- |
| Cc1cc(OC2CNC2)cc(C)c1-c1cccc(COc2ccc3c(c2)OC[C@H]3CC(=O)O)c1 [Example 16, (S)-2-(6-((4′-(Azetidin-3-yloxy)-2′,6′-dimethylbiphenyl-3-yl)methoxy)-2,3-dihydrobenzofuran-3-yl)acetic acid] | 15 nM | 15.72% | – |
| Cc1cc(O[C@H]2CCOC2)cc(C)c1-c1ccc(F)c(COc2ccc3c(c2)OC[C@H]3CC(=O)O)c1 [Example 18, 2-((S)-6-((4-Fluoro-2′,6′-dimethyl-4′-(((S)-tetrahydrofuran-3-yl)oxy)biphenyl-3-yl)methoxy)-2,3-dihydrobenzofuran-3-yl)acetic acid] | 28 nM | 44.13% | – |
| Cc1cc(O[C@H]2CCOC2)c(F)c(C)c1-c1cccc(COc2ccc3c(c2)OC[C@H]3CC(=O)O)c1 [Example 19, 2-((S)-6-((3′-Fluoro-2′,6′-dimethyl-4′-(((S)-tetrahydrofuran-3-yl)oxy)biphenyl-3-yl)methoxy)-2,3-dihydrobenzofuran-3-yl)acetic acid] | 55 nM | 36.78% | – |
| Cc1cc(O[C@@H]2CC[C@H](O)[C@@H]2O)cc(C)c1-c1cccc(COc2ccc3c(c2)OC[C@H]3CC(=O)O)c1 [Example 25, 2-((S)-6-((4′-(((1R,2S,3S)-2,3-dihydroxycyclopentyl)oxy)-2′,6′-dimethylbiphenyl-3-yl)methoxy)-2,3-dihydrobenzofuran-3-yl)acetic acid] | 31 nM | – | – |
| Cc1cc(O[C@@H]2CCOC2)cc(C)c1-c1ccc(F)c(COc2ccc3c(c2)OC[C@H]3CC(=O)O)c1 [Example 26, 2-((S)-6-((4-fluoro-2′,6′-dimethyl-4′-(((R)-tetrahydrofuran-3-yl)oxy)biphenyl-3-yl)methoxy)-2,3-dihydrobenzofuran-3-yl)acetic acid] | 52 nM | 26.06% | – |
| Cc1ccc(-c2c(C)cc(O[C@H]3CCOC3)cc2C)cc1COc1ccc2c(c1)OC[C@H]2CC(=O)O [Example 27, 2-((S)-6-((2′,4,6′-trimethyl-4′-(((S)-tetrahydrofuran-3-yl)oxy)biphenyl-3-yl)methoxy)-2,3-dihydrobenzofuran-3-yl)acetic acid] | 53 nM | – | – |
| Cc1cc(O[C@@H]2CCOC2)c(F)c(C)c1-c1cccc(COc2ccc3c(c2)OC[C@H]3CC(=O)O)c1 [Example 28, 2-((S)-6-((3′-fluoro-2′,6′-dimethyl-4′-(((R)-tetrahydrofuran-3-yl)oxy)biphenyl-3-yl)methoxy)-2,3-dihydrobenzofuran-3-yl)acetic acid] | 82 nM | – | – |
| Cc1cc(O[C@H]2COC[C@@H]2O)cc(C)c1-c1cccc(COc2ccc3c(c2)OC[C@H]3CC(=O)O)c1 [Example 29, 2-((S)-6-((4′-(((3S,4S)-4-hydroxytetrahydrofuran-3-yl)oxy)-2′,6′-dimethylbiphenyl-3-yl)methoxy)-2,3-dihydrobenzofuran-3-yl)acetic acid] | 41 nM | – | 20.41% |
| Cc1cc(O[C@@H]2CCOC2)cc(C)c1-c1cccc(COc2ccc3c(c2)OC[C@@H]3CC(=O)O)c1 [Example 33, 2-((R)-6-((2′,6′-dimethyl-4′-(((R)-tetrahydrofuran-3-yl)oxy)biphenyl-3-yl)methoxy)-2,3-dihydrobenzofuran-3-yl)acetic acid] | 113 nM | – | – |
| Cc1cc(O[C@H]2CCOC2)cc(C)c1-c1cccc(COc2ccc3c(c2)OC[C@@H]3CC(=O)O)c1 [Example 34, 2-((R)-6-((2′,6′-dimethyl-4′-(((S)-tetrahydrofuran-3-yl)oxy)biphenyl-3-yl)methoxy)-2,3-dihydrobenzofuran-3-yl)acetic acid] | 113 nM | – | – |

— patent US9139548B2, “Polycyclic derivatives, preparation process and pharmaceutical use thereof” (Jiangsu Hengrui Medicine Co., Ltd., priority 2012, dated 2015)
